Measurements taken from paper PMC12575728, “Galactose-modified small molecule modulator targets RORα to enhance circadian rhythm and alleviate periodontitis-associated alveolar bone loss” (Bone Research, 2025).

Columns and labels:
[1] = test system: human U2OS cells; assay: CCK-8 assay and live-dead staining; format: cell-based; conditions: 1-100 μmol/L, 24, 48, 72 h, pronounced above 10 μmol/L
Protocol: U2OS cells were seeded at a density of 10 000 cells per well in a 96-well plate, with 100 μL of culture medium added to each well. The cells were incubated at 37 °C in a 5% CO2 atmosphere for 24 h or until they reached the logarithmic growth phase. Following this, the cells were treated with SR1078, Gala-SR, Malt-SR, and Mann-SR and incubated for 24, 48, and 72 h. 10 μL of CCK-8 reagent was added to each well, and the plate was returned to the incubator for an additional 1–4 h. Absorbance at 450 nm was then measured using a microplate reader. The average absorbance for each well was calculated, and relative cell viability was determined by comparing the absorbance values to those of the control group.
332 Figure S25. After U2OS cells were treated with various concentrations (0 ~ 50 μM) of SR1078,
333 Gala-SR, Malt-SR, and Mann-SR for 24 hours, live and dead cells were labeled using the
334 Calcein-AM/PI double-staining method. Scale bar: 50 μm.
Body weight changes (%) in
338 C57BL/6J mice (n = 4) after 7 days of administration of Gala-SR, SR1078, or DMSO at doses of 10
339 mg/kg and 50 mg/kg via IP were measured. […]

[2] = test system: RORα/γ; assay: PCR of RORα/γ downstream target genes G6Pase and FGF21 in HepG2 cells; format: cell-based
Protocol: Cells were seeded into 6-well plates, treated with the drug for 24 h, and total RNA samples were extracted using TRIzol reagent (Vazyme, China). The extraction of total RNA was performed according to the following steps: After removal of the supernatant, the cells were thoroughly washed three times with phosphate-buffered saline (PBS). Subsequently, the cells were lysed by the application of 1 mL TRIzol reagent. The resulting samples were harvested into frozen 2 mL Eppendorf microcentrifuge tubes and incubated at room temperature for 5 min. A volume of 0.2 mL of chloroform was added to the microcentrifuge tubes to ensure homogenization of the samples, which were then vortexed and incubated at room temperature for another 10 min. The samples were then centrifuged at a speed of 12 000 × g in a microcentrifuge at 4 °C for 15 min. The upper aqueous phase was subsequently collected and transferred to a new 2 mL microcentrifuge tube and mixed with an equal volume of isopropanol. The mixture was then centrifuged at a speed of 12 000 × g in a table microcentrifuge at 4 °C for 10 min. The resulting precipitates were washed once with 1 mL of 75% ethanol and once with 100% ethanol, followed by centrifugation at a speed of 7 500 × g in a table microcentrifuge for 5 min. Finally, the pellet was dissolved in RNase-free DEPC-treated water.
(§1) RNA from liver, periodontal tissues and cell samples was prepared as previously described. Total RNA (1 ug) was synthesized into cDNA using […] (Vazyme). mRNA expression levels were normalized to GAPDH. Relative expression levels and enrichment contents were calculated using the comparative Ct Method. Primer information is detailed in Data file S1.

[3] = test system: RORα; assay: G6Pase and Fgf21 mRNA in mouse liver after IP injection; format: in vivo, mice; conditions: 10 mg/kg IP, liver collected 24 h after injection
Protocol: as §1

[4] = test system: human periodontal ligament stem cells; assay: qPCR of circadian clock genes in synchronized human periodontal ligament stem cells; format: cell-based; conditions: synchronized hPDLSCs, 5 µM, compared to DMSO and SR1078
Protocol: as §1
(§2) 379 Figure S34. Exploration of the inhibitory effect of compound 9 on the targeting function of RORs. a.
(§3) 380 Synthetic route of compound 9. b. Cytotoxicity assessment of compound 9 by CCK-8 assay. c.qPCR
(§4) 381 analysis of downstream target genes (FGF21 and G6Pase) in compound 9-treated HepG2 cells(n=6).
(§5) 382 d. Cotransfection of HEK293T cells with RORα or RORγ and reporters containing the FGF21 or
(§6) 384 5μM each of Gala-SR and SR1078. (* represents the comparison with DMSO*P<0.05, n=4).
(§7) 386 Figure S35. Impact of Gala-SR on circadian clock gene expression in periodontal ligament stem cells.
(§8) 387 qPCR analysis of core clock genes at multiple time points in synchronized hPDLSCs treated with 5
(§9) 391 Figure S36.Toxicity and safety evaluation in vivo.a. After intraperitoneal injection of Gala-SR and
(§10) 392 SR1078 for 2 weeks, mouse serum was collected to measure […] (ALT, AST, CREA,
393 and BUN. ns, not significant) to assess the drugs' impact on liver function. b. HE staining was […]

[5] = test system: jet lag mice; assay: Clock gene mRNA in liver of jet lag mice; format: in vivo; conditions: mice with disordered circadian rhythms
Protocol: as §1
Male C57BL/6 mice,[40] 2 months old, were housed under disrupted conditions for 4 weeks. From the third week, they were intraperitoneally injected with Gala-SR, SR1078, or DMSO for 3 weeks. In the fifth week, general anesthesia was administered via intraperitoneal injection of pentobarbital sodium (40 mg/kg), and a ligature was placed around the cervix of the maxillary second molar to establish the murine periodontitis model. Collect gingival tissue and liver tissue every 6 h continuously for a duration of 48 h.

[6] = Toxicity and safety evaluation in vivo (blood biochemistry, histopathology); conditions: mice, 10 mg/Kg
Protocol: as §2, §3, §4, §5, §6, §7, §8, §9, §10
393 and BUN. ns, not significant) to assess the drugs' impact on liver function. b. HE staining was
394 performed on liver, kidney, and heart tissues from mice after 2 weeks of intraperitoneal injection with […]

[7] = design: method as in PMID 20735016; conditions: cited from earlier work

| Compound | cytotoxicity / cell compatibility [1] | G6Pase and FGF21 expression, with galactosidase inhibitor ([2]; HepG2, 5 μmol/L Gala-SR + β-galactosidase inhibitor, vs pure Gala-SR) | G6Pase and FGF21 expression, with galactosidase ([2]; HepG2, 5 μmol/L Gala-SR + β-galactosidase, vs pure Gala-SR) | G6Pase and FGF21 mRNA expression ([2]; HepG2 cells, 5 μmol/L, 24 h, compared to SR1078) | G6Pase and FGF21 expression in mice liver compared to SR1078 [3] | rhythmic expression amplitude of BMAL1, PER1, and PER2 [4] | circadian rhythm of clock gene expression in liver tissue [5] | histopathological examination of liver, kidney, and heart [6] | safe dose for in vitro experiments ([7]; in vitro) [µmol/L] | safe dose for animal studies ([7]; mice) [mg/kg] |
| --- | --- | --- | --- | --- | --- | --- | --- | --- | --- | --- |
| O=C(Nc1ccc(C(OCO[C@@H]2O[C@H](CO)[C@H](O)[C@H](O)[C@H]2O)(C(F)(F)F)C(F)(F)F)cc1)c1ccc(C(F)(F)F)cc1 [Gala-SR] | superior among all the evaluated groups | downregulated | significantly upregulated | significant upregulation | significantly upregulated | more effectively enhanced | effectively restored | no discernible changes |  |  |
| O=C(Nc1ccc(C(O)(C(F)(F)F)C(F)(F)F)cc1)c1ccc(C(F)(F)F)cc1 [SR1078, reference compound] |  |  |  |  |  |  |  |  | 5 | 10 |
